According to patent US20230050398A1, “METHODS FOR INCREASING SHELF-LIFE OF OPHTHALMIC PHARMACEUTICAL COMPOSITIONS” (Harrow IP, LLC, priority 2021, published 2023):

Key:
Type in all cases: physicochemical
[1] = Stability of ophthalmic pharmaceutical composition of Example 2: amount of active ingredient by UHPLC; details: Example 2 composition; for Pass/Fail: 25° C., acceptance 90-110% of label claim (bromfenac, moxifloxacin), 90-115% (prednisolone acetate); for % Label Claim / Amount Found: stored at 25° C.
Procedure: (§1) The stability of an ophthalmic pharmaceutical composition made by the method of the present disclosure was studied and confirmed by the Compounder's International Analytical Laboratory. The data collected included the concentration of the active ingredients in the composition, the pH, and the appearance, color, and odor of the composition. The amount of active ingredient in the ophthalmic pharmaceutical composition was determined by ultra high performance liquid chromatography (UHPLC). The composition was stored at 25° C. The composition comprised the active ingredients bromfenac, moxifloxacin, and prednisolone acetate. The composition was considered stable if it contained 90-110% of the label claim of bromfenac and moxifloxacin and 90-115% of the label claim of prednisolone acetate. pH was determined according to USP 791, incorporated by reference herein. Additionally, the container enclosure was tested at baseline according to USP 1207 and 381, incorporated by reference herein. No blue dye was observed via UV-Vis spectrophotometry.
A sample of the composition was provided on May 28, 2021. […] 7, 2021.

[2] = Stability of comparator composition (Example 3): amount of active ingredient by UHPLC; details: for Pass/Fail: 25° C., acceptance 90-110% of label claim (bromfenac, moxifloxacin), 90-115% (prednisolone acetate); for % Label Claim (Potency) / Amount Found: stored at 25° C.
Procedure: The data collected included the concentration of the active ingredients in the composition. The amount of active ingredient in the composition was determined by ultra high performance liquid chromatography (UHPLC). The comparator composition was stored at 25° C. The composition comprised the active ingredients bromfenac, moxifloxacin, and prednisolone acetate.
A sample of the composition was provided on Nov.

[3] = Stability of ophthalmic pharmaceutical composition of Example 1: amount of active ingredient by UHPLC; details: Example 1 composition; for Pass/Fail: 25° C., acceptance 90-110% of label claim (bromfenac, moxifloxacin), 90-115% (prednisolone acetate); for % Label Claim / Amount Found: stored at 25° C.
Procedure: as §1, with “acetate.” for “acetate. pH was determined according to USP 791, incorporated by reference herein. Additionally, the container enclosure was tested at baseline according to USP 1207 and 381, incorporated by reference herein. No blue dye was observed via UV-Vis spectrophotometry.”
A sample of the composition was provided on Jul. 31, 2020. […] 21, 2020.

In the case of `Nc1c(CC(=O)O)cccc1C(=O)c1ccc(Br)cc1` [Bromfenac, bromfenac], the Pass/Fail ([1]; after 90 days) was “Pass”, the Pass/Fail ([1]; after 180 days) was “Pass” and the Pass/Fail ([1]; after 270 days) was “Pass”. The Pass/Fail ([1]; after 300 days) was “Pass”, the Pass/Fail ([1]; after 365 days) was “Pass” and the Pass/Fail ([1]; baseline) was “Pass”. The “% Label Claim” value ([1]; after 90 days) was 101.9%, the “Amount Found” value ([1]; after 90 days) was 0.07646% and the “% Label Claim” value ([1]; after 180 days) was 98.6%. The “Amount Found” value ([1]; after 180 days) was 0.07398%, the “% Label Claim” value ([1]; after 270 days) was 92.5% and the “Amount Found” value ([1]; after 270 days) was 0.06939%. For the same compound, the “% Label Claim” value ([1]; after 300 days) was 95.5%, the “Amount Found” value ([1]; after 300 days) was 0.0716% and the “% Label Claim” value ([1]; after 365 days) was 91.1%. For the same compound, the “Amount Found” value ([1]; after 365 days) was 0.06834%, the “% Label Claim” value ([1]; baseline) was 100.0% and the “Amount Found” value ([1]; baseline) was 0.07499%. The Pass/Fail ([2]; after 30 days) was “Pass”, the Pass/Fail ([2]; after 60 days) was “Pass” and the Pass/Fail ([2]; after 90 days) was “Fail”. For the same compound, the Pass/Fail ([2]; after 120 days) was “Fail”, the Pass/Fail ([2]; after 150 days) was “Fail” and the Pass/Fail ([2]; after 180 days) was “Fail”. For the same compound, the Pass/Fail ([2]; baseline) was “Pass”, the “% Label Claim (Potency)” value ([2]; after 30 days) was 94.9% and the “Amount Found” value ([2]; after 30 days) was 0.071%. The “% Label Claim (Potency)” value ([2]; after 60 days) was 92.2%, the “Amount Found” value ([2]; after 60 days) was 0.0692% and the “% Label Claim (Potency)” value ([2]; after 90 days) was 87%. For the same compound, the “Amount Found” value ([2]; after 90 days) was 0.0660%, the “% Label Claim (Potency)” value ([2]; after 120 days) was 82% and the “Amount Found” value ([2]; after 120 days) was 0.0618%. For the same compound, the “% Label Claim (Potency)” value ([2]; after 150 days) was 84%, the “Amount Found” value ([2]; after 150 days) was 0.0627% and the “% Label Claim (Potency)” value ([2]; after 180 days) was 78%. For the same compound, the “Amount Found” value ([2]; after 180 days) was 0.0584%, the “% Label Claim (Potency)” value ([2]; baseline) was 99.6% and the “Amount Found” value ([2]; baseline) was 0.0747%. For the same compound, the Pass/Fail ([3]; after 90 days) was “Pass”, the Pass/Fail ([3]; after 120 days) was “Pass” and the Pass/Fail ([3]; after 180 days) was “Pass”. The Pass/Fail ([3]; after 210 days) was “Pass”, the Pass/Fail ([3]; after 270 days) was “Pass” and the Pass/Fail ([3]; baseline) was “Pass”. The “% Label Claim” value ([3]; after 90 days) was 98.3%, the “Amount Found” value ([3]; after 90 days) was 0.07373% and the “% Label Claim” value ([3]; after 120 days) was 100.8%. For the same compound, the “Amount Found” value ([3]; after 120 days) was 0.07559%, the “% Label Claim” value ([3]; after 180 days) was 105.6% and the “Amount Found” value ([3]; after 180 days) was 0.07917%. For the same compound, the “% Label Claim” value ([3]; after 210 days) was 101.6%, the “Amount Found” value ([3]; after 210 days) was 0.0762% and the “% Label Claim” value ([3]; after 270 days) was 97.5%. The “Amount Found” value ([3]; after 270 days) was 0.07312%, the “% Label Claim” value ([3]; baseline) was 107.0% and the “Amount Found” value ([3]; baseline) was 0.08023%.

With `CC(=O)OCC(=O)[C@@]1(O)CC[C@H]2[C@@H]3CCC4=CC(=O)C=C[C@]4(C)[C@H]3[C@@H](O)C[C@@]21C` [Prednisolone acetate, prednisolone acetate] the Pass/Fail ([1]; after 90 days) was “Pass”, the Pass/Fail ([1]; after 180 days) was “Pass” and the Pass/Fail ([1]; after 270 days) was “Pass”. The Pass/Fail ([1]; after 300 days) was “Pass”, the Pass/Fail ([1]; after 365 days) was “Pass” and the Pass/Fail ([1]; baseline) was “Pass”. The “% Label Claim” value ([1]; after 90 days) was 98.0%, the “Amount Found” value ([1]; after 90 days) was 0.9805% and the “% Label Claim” value ([1]; after 180 days) was 98.8%. For the same compound, the “Amount Found” value ([1]; after 180 days) was 0.9883%, the “% Label Claim” value ([1]; after 270 days) was 97.4% and the “Amount Found” value ([1]; after 270 days) was 0.9743%. For the same compound, the “% Label Claim” value ([1]; after 300 days) was 99.5%, the “Amount Found” value ([1]; after 300 days) was 0.9954% and the “% Label Claim” value ([1]; after 365 days) was 99.6%. The “Amount Found” value ([1]; after 365 days) was 0.9960%, the “% Label Claim” value ([1]; baseline) was 102.4% and the “Amount Found” value ([1]; baseline) was 1.024%. For the same compound, the Pass/Fail ([2]; after 30 days) was “Pass”, the Pass/Fail ([2]; after 60 days) was “Pass” and the Pass/Fail ([2]; after 90 days) was “Pass”. The Pass/Fail ([2]; after 120 days) was “Pass”, the Pass/Fail ([2]; after 150 days) was “Pass” and the Pass/Fail ([2]; after 180 days) was “Pass”. The Pass/Fail ([2]; baseline) was “Pass”, the “% Label Claim (Potency)” value ([2]; after 30 days) was 97.8% and the “Amount Found” value ([2]; after 30 days) was 0.978%. The “% Label Claim (Potency)” value ([2]; after 60 days) was 90.0%, the “Amount Found” value ([2]; after 60 days) was 0.9001% and the “% Label Claim (Potency)” value ([2]; after 90 days) was 99%. For the same compound, the “Amount Found” value ([2]; after 90 days) was 0.9885%, the “% Label Claim (Potency)” value ([2]; after 120 days) was 95% and the “Amount Found” value ([2]; after 120 days) was 0.9505%. For the same compound, the “% Label Claim (Potency)” value ([2]; after 150 days) was 93%, the “Amount Found” value ([2]; after 150 days) was 0.926% and the “% Label Claim (Potency)” value ([2]; after 180 days) was 91%. For the same compound, the “Amount Found” value ([2]; after 180 days) was 0.907%, the “% Label Claim (Potency)” value ([2]; baseline) was 98.4% and the “Amount Found” value ([2]; baseline) was 0.984%. The Pass/Fail ([3]; after 90 days) was “Pass”, the Pass/Fail ([3]; after 120 days) was “Pass” and the Pass/Fail ([3]; after 180 days) was “Pass”. The Pass/Fail ([3]; after 210 days) was “Pass”, the Pass/Fail ([3]; after 270 days) was “Pass” and the Pass/Fail ([3]; baseline) was “Pass”. The “% Label Claim” value ([3]; after 90 days) was 99.2%, the “Amount Found” value ([3]; after 90 days) was 0.9915% and the “% Label Claim” value ([3]; after 120 days) was 103.5%. For the same compound, the “Amount Found” value ([3]; after 120 days) was 1.035%, the “% Label Claim” value ([3]; after 180 days) was 105.6% and the “Amount Found” value ([3]; after 180 days) was 1.056%. The “% Label Claim” value ([3]; after 210 days) was 106.5%, the “Amount Found” value ([3]; after 210 days) was 1.065% and the “% Label Claim” value ([3]; after 270 days) was 103.6%. The “Amount Found” value ([3]; after 270 days) was 1.036%, the “% Label Claim” value ([3]; baseline) was 100.0% and the “Amount Found” value ([3]; baseline) was 1.000%.
